Measured values from patent US5567692A, “9-[(substituted glycyl) amido)]-6-demethyl-6-deoxytetracyclines” (priority 1995, dated 1996).
Values after ≈ are worked out from the molar mass of the structure shown. Structures can show the parent of a compound that is named as a salt. Where two headings read alike, the source gives them in different places.

Tests used:
E. coli UBMS 88-1 Tet B = experiment: microbe, parasite or virus in culture; type: cell-based; details: Escherichia coli, UBMS881TETB, 18 h
E. coli J3272 Tet sens = experiment: MIC, agar dilution; type: cell-based; details: Escherichia coli, J3272TETSENS, 18 h
E. coli PRP1 Tet A = experiment: microbe, parasite or virus in culture; type: cell-based; details: Escherichia coli, PRP1TETA, 18 h
[1] = system: E. coli MC 4100 TNIOC Tet B; experiment: microbe, parasite or virus in culture; type: cell-based; details: Escherichia coli, 18 h
E. coli J3272 Tet C = experiment: microbe, parasite or virus in culture; type: cell-based; details: Escherichia coli, J3272TETC, 18 h
E. coli UBMS 89-1 Tet M = experiment: microbe, parasite or virus in culture; type: cell-based; details: Escherichia coli, UBMS891TETM, 18 h
[2] = system: E. coli UBMS 89-2 Tet sens.; experiment: MIC, agar dilution; type: cell-based; details: Escherichia coli, 18 h
E. coli J2175 = experiment: MIC, agar dilution; type: cell-based; details: Escherichia coli, 18 h, read-out: MIC
E. coli BAJ9003 IMP MUT = experiment: microbe, parasite or virus in culture; type: cell-based; details: Escherichia coli, BAJ9003IMPMUT, 18 h
E. coli UBMS 90-4 Tet M = experiment: microbe, parasite or virus in culture; type: cell-based; details: Escherichia coli, UBMS904TETM, 18 h
E. coli UBMS 90-5 = experiment: microbe, parasite or virus in culture; type: cell-based; details: Escherichia coli, UBMS905, 18 h, E. coli UBMS 90-5; read-out: MIC
E. coli #311 (MP) = experiment: MIC, agar dilution; type: cell-based; details: Escherichia coli, 18 h
E. coli ATCC 25922 = experiment: MIC, agar dilution; type: cell-based; details: Escherichia coli, ATCC25922, 18 h
E. coli J3272 Tet D = experiment: microbe, parasite or virus in culture; type: cell-based; details: Escherichia coli, J3272TETD, 18 h
S. marcescens FPOR 8733 = experiment: MIC, agar dilution; type: cell-based; details: Serratia marcescens, FPOR8733, 18 h
[3] = system: X. maltophilia NEMC 87210; experiment: MIC, agar dilution; type: cell-based; details: Stenotrophomonas maltophilia, NEMC87210, 18 h
[4] = system: Ps. aeruginosa ATCC 27853; experiment: MIC, agar dilution; type: cell-based; details: Pseudomonas aeruginosa, ATCC27853, 18 h
S. aureus NEMC 8769 = experiment: MIC, agar dilution; type: cell-based; details: Staphylococcus aureus, NEMC8769, 18 h
S. aureus UBMS 88-4 = experiment: MIC, agar dilution; type: cell-based; details: Staphylococcus aureus, UBMS884, 18 h; S. aureus UBMS 88-4
[5] = system: S. aureus UBMS 88-5 Tet M; experiment: microbe, parasite or virus in culture; type: cell-based; details: Staphylococcus aureus, UBMS885TETM, 18 h, S. aureus UBMS 88-5 Tet M
[6] = system: S. aureus UBMS 88-7 Tet K; experiment: microbe, parasite or virus in culture; type: cell-based; details: Staphylococcus aureus, UBMS887TETK, 18 h
[7] = system: S. aureus UBMS 90-1 Tet M; experiment: microbe, parasite or virus in culture; type: cell-based; details: Staphylococcus aureus, UBMS901TETM, 18 h
S. aureus UBMS 90-3 = experiment: MIC, agar dilution; type: cell-based; details: Staphylococcus aureus, UBMS903, 18 h
[8] = system: S. aureus UBMS 90-2 Tet M; experiment: microbe, parasite or virus in culture; type: cell-based; details: Staphylococcus aureus, UBMS902TETM, 18 h
S. aureus IVES 2943 = experiment: MIC, agar dilution; type: cell-based; details: Staphylococcus aureus, IVES2943, 18 h, S. aureus IVES 2943; read-out: MIC
S. aureus ROSE (MP) = experiment: MIC, agar dilution; type: cell-based; details: Staphylococcus aureus, 18 h, read-out: MIC
S. aureus SMITH (MP) = experiment: MIC, agar dilution; type: cell-based; details: Staphylococcus aureus, 18 h
S. aureus IVES 1983 = experiment: MIC, agar dilution; type: cell-based; details: Staphylococcus aureus, IVES1983, 18 h
S. aureus ATCC 29213 = experiment: MIC, agar dilution; type: cell-based; details: Staphylococcus aureus, ATCC29213, 18 h
[9] = system: S. hemolyticus AVHAH 88-3; experiment: MIC, agar dilution; type: cell-based; details: Streptococcus pyogenes, AVHAH883, 18 h
Enterococcus 12201 = experiment: MIC, agar dilution; type: cell-based; details: Enterococcus, 12201, 18 h
E. faecalis ATCC 29212 = experiment: MIC, agar dilution; type: cell-based; details: Enterococcus faecalis, ATCC29212, 18 h, E. faecalis ATCC 29212; read-out: MIC
[10] = system: Staphylococcus aureus strain Smith (tetracycline sensitive); experiment: Acute lethal infection in mice, S. aureus Smith; type: in vivo; details: for ED50: Staphylococcus aureus, 168 h, mice, S. aureus Smith (Sens), 7 day survival, read-out: ED50
[11] = system: Staphylococcus aureus, (methicillin-susceptible); experiment: MIC range, recent clinical and veterinary isolates; type: cell-based; details: Staphylococcus aureus, 18 h, read-out: MIC Range
Enterococcus faecalis = experiment: MIC range, recent clinical and veterinary isolates; type: cell-based; details: 18 h, read-out: MIC Range
Enterococcus faecium = experiment: MIC range, recent clinical and veterinary isolates; type: cell-based; details: 18 h, read-out: MIC Range
Streptococcus pyogenes = experiment: MIC range, recent clinical and veterinary isolates; type: cell-based; details: 18 h, read-out: MIC Range
Streptococcus agalactiae = experiment: MIC range, recent clinical and veterinary isolates; type: cell-based; details: 18 h, read-out: MIC Range
Streptococcus pneumoniae = experiment: MIC range, recent clinical and veterinary isolates; type: cell-based; details: 18 h, read-out: MIC Range
Klebsiella oxytoca = experiment: MIC range, recent clinical and veterinary isolates; type: cell-based; details: 18 h, read-out: MIC Range
Citrobacter freundii = experiment: MIC range, recent clinical and veterinary isolates; type: cell-based; details: 18 h, read-out: MIC Range
Citrobacter diversus = experiment: MIC range, recent clinical and veterinary isolates; type: cell-based; details: Citrobacter koseri, 18 h, read-out: MIC Range
Enterobacter cloacae = experiment: MIC range, recent clinical and veterinary isolates; type: cell-based; details: 18 h, read-out: MIC Range
Enterobacter aerogenes = experiment: MIC range, recent clinical and veterinary isolates; type: cell-based; details: Klebsiella aerogenes, 18 h, read-out: MIC Range
Proteus mirabilis = experiment: MIC range, recent clinical and veterinary isolates; type: cell-based; details: 18 h, read-out: MIC Range
Proteus vulgaris = experiment: MIC range, recent clinical and veterinary isolates; type: cell-based; details: 18 h, read-out: MIC Range
Pseudomonas aeruginosa = experiment: MIC range, recent clinical and veterinary isolates; type: cell-based; details: 18 h, read-out: MIC Range
Xanthamonas maltophilia = experiment: MIC range, recent clinical and veterinary isolates; type: cell-based; details: 18 h, read-out: MIC Range
Moraxella catarrhalis = experiment: MIC range, recent clinical and veterinary isolates; type: cell-based; details: 18 h, read-out: MIC Range
Haemophilus influenzae = experiment: MIC range, recent clinical and veterinary isolates; type: cell-based; details: 18 h, [15] isolates
[12] = system: Pasturella multocida (Veterinary); experiment: MIC range, recent clinical and veterinary isolates; type: cell-based; details: 18 h, [17] isolates
[13] = system: Bordetella bronchiseptica (Veterinary); experiment: MIC range, recent clinical and veterinary isolates; type: cell-based; details: Bordetella bronchiseptica, 18 h, read-out: MIC Range
[14] = system: Bacteroides fragilis group; experiment: MIC range, recent clinical and veterinary isolates; type: cell-based; details: Bacteroides fragilis, 18 h, read-out: MIC Range
Clostridium difficile = experiment: MIC range, recent clinical and veterinary isolates; type: cell-based; details: Clostridioides difficile, 18 h, read-out: MIC Range
Clostridium perfringens = experiment: microbe, parasite or virus in culture; type: cell-based; details: [16] isolates
Clostridium spp. = experiment: MIC range, recent clinical and veterinary isolates; type: cell-based; details: [9] isolates

CCCCNCC(=O)Nc1ccc2c(c1O)C(=O)C1=C(O)[C@]3(O)C(=O)C(C(N)=O)=C(O)[C@@H](N(C)C)C3CC1C2 (stereo partly drawn) [H, [4S-(4alpha,12aalpha)]-9-[[(Butylamino)acetyl]amino]-4-(dimethylamino)-1,4,4a,5,5a,6,11,12a-octahydro-3,10,12,12a-tetrahydroxy-1,11-dioxo-2-naphthacenecarboxamide dihydrochloride]
MIC (E. coli UBMS 88-1 Tet B): 0.25 µg/mL | MIC (E. coli J3272 Tet sens): 0.12 µg/mL | MIC (E. coli PRP1 Tet A): 0.25 µg/mL | MIC [1]: 0.25 µg/mL | MIC (E. coli J3272 Tet C): 0.12 µg/mL | MIC (E. coli UBMS 89-1 Tet M): 0.12 µg/mL | MIC [2]: 0.12 µg/mL | MIC (E. coli J2175): 0.25 µg/mL | MIC (E. coli BAJ9003 IMP MUT): 0.06 µg/mL | MIC (E. coli UBMS 90-4 Tet M): 0.12 µg/mL | MIC (E. coli UBMS 90-5): 0.12 µg/mL | MIC (E. coli #311 (MP)): 0.12 µg/mL | MIC (E. coli ATCC 25922): 0.12 µg/mL | MIC (E. coli J3272 Tet D): 0.06 µg/mL | MIC (S. marcescens FPOR 8733): 2 µg/mL | MIC [3]: 1 µg/mL | MIC ([4]; Ps. aeruginosa ATCC 27853, read-out: MIC): 8 µg/mL | MIC (S. aureus NEMC 8769): 0.03 µg/mL | MIC (S. aureus UBMS 88-4): 0.06 µg/mL | MIC [5]: 0.06 µg/mL | MIC [6]: 1 µg/mL | MIC [7]: 0.12 µg/mL | MIC (S. aureus UBMS 90-3): 0.03 µg/mL | MIC [8]: 0.12 µg/mL | MIC (S. aureus IVES 2943): 1 µg/mL | MIC (S. aureus ROSE (MP)): 4 µg/mL | MIC (S. aureus SMITH (MP)): 0.12 µg/mL | MIC (S. aureus IVES 1983): 2 µg/mL | MIC (S. aureus ATCC 29213): 0.06 µg/mL | MIC [9]: 0.5 µg/mL | MIC (Enterococcus 12201): 0.12 µg/mL | MIC (E. faecalis ATCC 29212): 0.12 µg/mL | ED50 ([10]; iv, Intraveneous): 0.5 to 1 mg/kg | ED50 ([10]; po, Oral): > 16 mg/kg | in vivo activity (in words) ([10]; tested intravenously against the minocycline sensitive organism S. aureus Smith): very good in vivo activity

CN(C)[C@@H]1C(O)=C(C(N)=O)C(=O)[C@@]2(O)C(O)=C3C(=O)c4c(O)cccc4[C@@](C)(O)[C@H]3C[C@@H]12 [T, Tetracycline]
MIC (E. coli J3272 Tet sens): 1 µg/mL (≈ 2.25 µM) | MIC (E. coli J2175): 1 µg/mL (≈ 2.25 µM) | MIC (E. coli UBMS 90-5): 0.5 µg/mL (≈ 1.13 µM) | MIC (E. coli ATCC 25922): 0.5 µg/mL (≈ 1.13 µM) | MIC (S. marcescens FPOR 8733): > 32 µg/mL | MIC [4]: 8 µg/mL (≈ 18 µM) | MIC (S. aureus NEMC 8769): 0.06 µg/mL (≈ 0.135 µM) | MIC (S. aureus UBMS 88-4): 0.12 µg/mL (≈ 0.27 µM) | MIC (S. aureus UBMS 90-3; S. aureus UBMS 90-3): 0.12 µg/mL (≈ 0.27 µM) | MIC (S. aureus SMITH (MP); S. aureus SMITH (MP)): 0.12 µg/mL (≈ 0.27 µM) | MIC (S. aureus ATCC 29213; S. aureus ATCC 29213): < 0.015 µg/mL | MIC [9]: 0.5 µg/mL (≈ 1.13 µM) | MIC (Enterococcus 12201): 32 µg/mL (≈ 72 µM) | MIC [11]: 0.12 to 1 µg/mL (≈ 0.27 to 2.25 µM) | MIC (Enterococcus faecalis): 0.12 to 64 µg/mL (≈ 0.27 to 144 µM) | MIC (Enterococcus faecium): 0.12 to 64 µg/mL (≈ 0.27 to 144 µM) | MIC (Streptococcus pyogenes): 0.12 to 16 µg/mL (≈ 0.27 to 36 µM) | MIC (Streptococcus agalactiae): 0.25 to 64 µg/mL (≈ 0.563 to 144 µM) | MIC (Streptococcus pneumoniae): 0.12 to 2 µg/mL (≈ 0.27 to 4.5 µM) | MIC (Klebsiella oxytoca): 0.5 to 1 µg/mL (≈ 1.13 to 2.25 µM) | MIC (Citrobacter freundii): 0.5 to 16 µg/mL (≈ 1.13 to 36 µM) | MIC (Citrobacter diversus): 0.5 to 4 µg/mL (≈ 1.13 to 9 µM) | MIC (Enterobacter cloacae): 0.5 to 2 µg/mL (≈ 1.13 to 4.5 µM) | MIC (Enterobacter aerogenes): 0.5 to 1 µg/mL (≈ 1.13 to 2.25 µM) | MIC (Proteus mirabilis): 0.5 to 64 µg/mL (≈ 1.13 to 144 µM) | MIC (Proteus vulgaris): 0.25 to 64 µg/mL (≈ 0.563 to 144 µM) | MIC (Pseudomonas aeruginosa): 2 to 32 µg/mL (≈ 4.5 to 72 µM) | MIC (Xanthamonas maltophilia): 8 to 16 µg/mL (≈ 18 to 36 µM) | MIC (Moraxella catarrhalis): 0.06 to 0.5 µg/mL (≈ 0.135 to 1.13 µM) | MIC (Haemophilus influenzae): 1 to 32 µg/mL (≈ 2.25 to 72 µM) | MIC [12]: 0.06 to 16 µg/mL (≈ 0.135 to 36 µM) | MIC [13]: 0.12 to 0.25 µg/mL (≈ 0.27 to 0.563 µM) | MIC [14]: 0.25 to 32 µg/mL (≈ 0.563 to 72 µM) | MIC (Clostridium difficile): 0.12 to 32 µg/mL (≈ 0.27 to 72 µM) | MIC Range (Clostridium perfringens): 0.015 to 16 µg/mL | MIC Range (Clostridium spp.): 0.015 to 64 µg/mL
